For experiment [1], the target named is Serine/threonine-protein kinase PAK 3 (Homo sapiens) (UniProt O75914). Kind of experiment: Selectivity interaction (KinomeScan (DiscoverX)) EUB0000595a PAK3. As to conditions: at 10 µM.
Experiment [2] has as its target T1, Protein kinase C epsilon type (Homo sapiens) (UniProt Q02156).
T1 sequence (whole entry): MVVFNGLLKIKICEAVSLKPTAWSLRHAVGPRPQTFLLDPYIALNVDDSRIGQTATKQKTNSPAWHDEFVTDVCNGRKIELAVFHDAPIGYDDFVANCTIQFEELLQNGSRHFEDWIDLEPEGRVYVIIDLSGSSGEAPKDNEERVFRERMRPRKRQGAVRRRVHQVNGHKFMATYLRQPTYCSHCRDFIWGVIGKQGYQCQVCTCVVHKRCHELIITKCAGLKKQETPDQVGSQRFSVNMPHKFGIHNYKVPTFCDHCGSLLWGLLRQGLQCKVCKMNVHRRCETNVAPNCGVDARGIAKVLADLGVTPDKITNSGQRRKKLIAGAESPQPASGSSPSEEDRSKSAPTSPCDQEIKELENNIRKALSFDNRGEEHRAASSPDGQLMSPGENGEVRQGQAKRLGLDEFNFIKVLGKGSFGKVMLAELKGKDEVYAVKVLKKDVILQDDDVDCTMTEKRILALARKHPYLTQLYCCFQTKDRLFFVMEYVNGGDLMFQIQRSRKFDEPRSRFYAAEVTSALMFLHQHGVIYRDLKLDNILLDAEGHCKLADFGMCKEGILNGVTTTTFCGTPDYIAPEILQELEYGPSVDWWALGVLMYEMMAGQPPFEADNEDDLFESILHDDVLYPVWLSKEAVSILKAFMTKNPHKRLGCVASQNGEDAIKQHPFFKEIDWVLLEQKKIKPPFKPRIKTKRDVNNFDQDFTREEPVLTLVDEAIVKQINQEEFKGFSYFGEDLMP
As to conditions: at 10 µM.

The target of experiment [3] is Transient receptor potential cation channel subfamily M member 6 (Homo sapiens) (UniProt Q9BX84). The experiment can be described thus: Selectivity interaction (KinomeScan (DiscoverX)) EUB0000695a TRPM6. As to conditions: at 100 nM.
In experiment [4] the target is Calcium/calmodulin-dependent protein kinase type 1 (Homo sapiens) (UniProt Q14012). To be noted: at 10 µM.
Calcium/calmodulin-dependent protein kinase type 1 (Homo sapiens), sequence (Q14012 whole entry, looked up): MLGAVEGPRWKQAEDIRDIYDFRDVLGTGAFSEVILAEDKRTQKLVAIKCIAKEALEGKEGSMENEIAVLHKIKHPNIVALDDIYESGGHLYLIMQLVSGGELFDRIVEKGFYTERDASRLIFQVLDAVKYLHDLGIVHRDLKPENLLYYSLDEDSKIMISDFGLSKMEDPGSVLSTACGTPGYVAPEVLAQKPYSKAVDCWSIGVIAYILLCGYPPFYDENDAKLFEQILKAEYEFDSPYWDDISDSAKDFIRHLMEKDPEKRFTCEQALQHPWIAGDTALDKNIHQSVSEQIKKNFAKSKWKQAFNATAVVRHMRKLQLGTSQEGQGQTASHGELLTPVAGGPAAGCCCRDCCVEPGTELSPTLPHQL
The target in the next experiment is Insulin receptor (Homo sapiens, UniProt P06213). As to conditions: at 3 µM.
The target of experiment [5] is Mitogen-activated protein kinase 14 (Homo sapiens, UniProt Q16539). The experiment can be described thus: Selectivity interaction (ActivX KiNativ screen (kinase selectivity in THP-1 cell lysates)) EUB0000639a MAPK14. Type of experiment: subcellular. As to conditions: lysate, at 0.04 µM.
Mitogen-activated protein kinase 14, sequence (Q16539 whole entry): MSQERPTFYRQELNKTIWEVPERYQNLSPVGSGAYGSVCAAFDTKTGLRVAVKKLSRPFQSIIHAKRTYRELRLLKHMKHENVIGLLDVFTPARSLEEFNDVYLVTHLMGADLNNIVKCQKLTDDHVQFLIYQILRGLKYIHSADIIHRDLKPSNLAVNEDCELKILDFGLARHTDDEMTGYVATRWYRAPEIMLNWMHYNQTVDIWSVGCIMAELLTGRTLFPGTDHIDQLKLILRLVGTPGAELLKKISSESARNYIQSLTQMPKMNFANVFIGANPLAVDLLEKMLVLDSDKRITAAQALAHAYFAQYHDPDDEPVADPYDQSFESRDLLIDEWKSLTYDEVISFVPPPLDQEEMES
The target in experiment [6] is T1, Protein kinase C epsilon type (Homo sapiens). The experiment can be described thus: Selectivity interaction (Kinase panel (Invitrogen)) EUB0000639a PRKCE. As to conditions: at 200 nM.
Experiment [7] has as its target 1-phosphatidylinositol 3-phosphate 5-kinase (Homo sapiens) (UniProt Q9Y2I7). The experiment can be described thus: Selectivity interaction (ActivX KiNativ screen (kinase selectivity in THP-1 cell lysates)) EUB0000639a PIKFYVE. To be noted: lysate. Type of experiment: subcellular.
For experiment [8], the target named is Macrophage colony-stimulating factor 1 receptor (Homo sapiens) (UniProt P07333). Kind of experiment: Selectivity interaction (KinomeScan (DiscoverX)) EUB0000655a CSF1R. As to conditions: at 10 µM.
Macrophage colony-stimulating factor 1 receptor (Homo sapiens), sequence (P07333 whole entry): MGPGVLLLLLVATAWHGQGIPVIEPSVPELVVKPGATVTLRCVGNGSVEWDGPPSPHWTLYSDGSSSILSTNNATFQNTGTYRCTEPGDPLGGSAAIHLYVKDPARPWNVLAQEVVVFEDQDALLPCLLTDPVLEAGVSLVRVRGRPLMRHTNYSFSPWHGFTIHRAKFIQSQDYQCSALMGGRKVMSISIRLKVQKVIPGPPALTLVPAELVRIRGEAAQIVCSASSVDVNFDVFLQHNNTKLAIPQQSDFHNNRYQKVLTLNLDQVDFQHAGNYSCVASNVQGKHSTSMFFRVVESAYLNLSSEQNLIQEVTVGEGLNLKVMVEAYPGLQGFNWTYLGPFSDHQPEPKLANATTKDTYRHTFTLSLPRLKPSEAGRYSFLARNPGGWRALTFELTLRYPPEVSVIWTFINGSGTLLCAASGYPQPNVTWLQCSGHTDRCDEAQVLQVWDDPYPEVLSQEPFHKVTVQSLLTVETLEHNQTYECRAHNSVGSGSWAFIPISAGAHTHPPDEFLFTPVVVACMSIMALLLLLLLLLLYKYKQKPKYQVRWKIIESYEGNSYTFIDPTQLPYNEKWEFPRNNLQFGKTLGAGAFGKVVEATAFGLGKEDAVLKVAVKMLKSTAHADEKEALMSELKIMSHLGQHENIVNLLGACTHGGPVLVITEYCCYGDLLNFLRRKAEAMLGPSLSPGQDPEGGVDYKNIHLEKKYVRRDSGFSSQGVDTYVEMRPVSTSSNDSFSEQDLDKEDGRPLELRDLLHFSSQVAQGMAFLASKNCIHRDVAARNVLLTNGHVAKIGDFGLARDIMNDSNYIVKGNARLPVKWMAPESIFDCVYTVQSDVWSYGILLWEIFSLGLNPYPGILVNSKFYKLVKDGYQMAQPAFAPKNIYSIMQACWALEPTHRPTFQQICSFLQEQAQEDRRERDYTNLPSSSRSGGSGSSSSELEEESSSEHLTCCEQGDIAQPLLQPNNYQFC
The target of experiment [9] is Death-associated protein kinase 1 (Homo sapiens, UniProt P53355). Kind of experiment: Selectivity interaction (KinomeScan (DiscoverX)) EUB0000655a DAPK1. As to conditions: at 10 µM.
For experiment [10], the target named is T1, Protein kinase C epsilon type (Homo sapiens). The experiment can be described thus: Selectivity interaction (KinomeScan (DiscoverX)) EUB0000092b PRKCE. As to conditions: at 10 µM.
The nature of experiment [11]: Selectivity interaction (KinomeScan (DiscoverX)) EUB0001079a CDPK1. To be noted: at 1 µM.
The target of experiment [12] is T2, Serine/threonine-protein kinase DCLK3 (Homo sapiens) (UniProt Q9C098).
T2 sequence (whole entry): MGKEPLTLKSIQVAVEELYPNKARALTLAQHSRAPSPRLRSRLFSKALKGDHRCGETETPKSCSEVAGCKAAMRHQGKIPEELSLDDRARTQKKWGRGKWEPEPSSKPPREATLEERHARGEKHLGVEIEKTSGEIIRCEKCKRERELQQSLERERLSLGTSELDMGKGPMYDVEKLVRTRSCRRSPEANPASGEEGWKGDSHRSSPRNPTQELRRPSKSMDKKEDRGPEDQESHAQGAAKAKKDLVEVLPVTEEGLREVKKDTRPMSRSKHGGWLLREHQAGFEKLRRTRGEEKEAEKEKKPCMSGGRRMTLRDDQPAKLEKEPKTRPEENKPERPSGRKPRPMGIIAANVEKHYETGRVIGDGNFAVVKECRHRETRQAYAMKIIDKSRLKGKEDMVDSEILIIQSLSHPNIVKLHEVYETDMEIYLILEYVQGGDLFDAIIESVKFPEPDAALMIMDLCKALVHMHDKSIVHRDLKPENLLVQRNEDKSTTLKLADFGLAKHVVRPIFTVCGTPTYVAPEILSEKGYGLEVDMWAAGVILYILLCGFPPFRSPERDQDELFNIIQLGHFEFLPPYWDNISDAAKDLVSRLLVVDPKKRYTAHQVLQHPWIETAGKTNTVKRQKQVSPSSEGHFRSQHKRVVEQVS
The experiment can be described thus: Selectivity interaction (KinomeScan (DiscoverX)) EUB0001079a DCLK3. To be noted: at 1 µM.

The target of experiment [13] is RAC-alpha serine/threonine-protein kinase (Homo sapiens, UniProt P31749). The experiment can be described thus: Selectivity interaction (Millipore kinase profiler) EUB0000124b AKT1. To be noted: at 10 µM.
RAC-alpha serine/threonine-protein kinase, sequence (P31749 whole entry, canonical isoform): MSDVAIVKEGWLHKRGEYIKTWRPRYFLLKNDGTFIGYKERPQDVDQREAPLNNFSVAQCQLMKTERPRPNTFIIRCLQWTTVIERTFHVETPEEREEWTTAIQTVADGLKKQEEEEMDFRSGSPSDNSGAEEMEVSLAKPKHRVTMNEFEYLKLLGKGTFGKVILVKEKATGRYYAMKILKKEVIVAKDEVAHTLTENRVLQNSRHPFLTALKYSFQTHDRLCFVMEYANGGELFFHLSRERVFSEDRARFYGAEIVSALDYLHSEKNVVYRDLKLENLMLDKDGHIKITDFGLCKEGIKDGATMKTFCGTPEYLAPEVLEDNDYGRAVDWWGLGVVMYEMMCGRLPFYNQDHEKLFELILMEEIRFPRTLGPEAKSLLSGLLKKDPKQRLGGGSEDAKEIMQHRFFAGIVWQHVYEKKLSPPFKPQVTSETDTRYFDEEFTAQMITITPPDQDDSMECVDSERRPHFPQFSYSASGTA
Experiment [14] deals with T3, Casein kinase I isoform alpha-like (Homo sapiens) (UniProt Q8N752).
T3 sequence (whole entry): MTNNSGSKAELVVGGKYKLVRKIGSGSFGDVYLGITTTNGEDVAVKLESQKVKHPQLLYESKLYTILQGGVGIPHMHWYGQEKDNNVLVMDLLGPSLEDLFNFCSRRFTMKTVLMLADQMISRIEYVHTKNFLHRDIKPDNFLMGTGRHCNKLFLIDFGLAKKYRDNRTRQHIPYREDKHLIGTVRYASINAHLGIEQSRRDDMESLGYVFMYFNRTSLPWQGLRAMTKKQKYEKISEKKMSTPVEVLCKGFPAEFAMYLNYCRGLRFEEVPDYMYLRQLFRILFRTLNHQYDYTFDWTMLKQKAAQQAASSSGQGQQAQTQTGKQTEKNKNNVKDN
Kind of experiment: Selectivity interaction (KinomeScan (DiscoverX)) EUB0000229b CSNK1A1L. As to conditions: at 10 µM.

1-phosphatidylinositol 3-phosphate 5-kinase (Homo sapiens), sequence (Q9Y2I7 whole entry): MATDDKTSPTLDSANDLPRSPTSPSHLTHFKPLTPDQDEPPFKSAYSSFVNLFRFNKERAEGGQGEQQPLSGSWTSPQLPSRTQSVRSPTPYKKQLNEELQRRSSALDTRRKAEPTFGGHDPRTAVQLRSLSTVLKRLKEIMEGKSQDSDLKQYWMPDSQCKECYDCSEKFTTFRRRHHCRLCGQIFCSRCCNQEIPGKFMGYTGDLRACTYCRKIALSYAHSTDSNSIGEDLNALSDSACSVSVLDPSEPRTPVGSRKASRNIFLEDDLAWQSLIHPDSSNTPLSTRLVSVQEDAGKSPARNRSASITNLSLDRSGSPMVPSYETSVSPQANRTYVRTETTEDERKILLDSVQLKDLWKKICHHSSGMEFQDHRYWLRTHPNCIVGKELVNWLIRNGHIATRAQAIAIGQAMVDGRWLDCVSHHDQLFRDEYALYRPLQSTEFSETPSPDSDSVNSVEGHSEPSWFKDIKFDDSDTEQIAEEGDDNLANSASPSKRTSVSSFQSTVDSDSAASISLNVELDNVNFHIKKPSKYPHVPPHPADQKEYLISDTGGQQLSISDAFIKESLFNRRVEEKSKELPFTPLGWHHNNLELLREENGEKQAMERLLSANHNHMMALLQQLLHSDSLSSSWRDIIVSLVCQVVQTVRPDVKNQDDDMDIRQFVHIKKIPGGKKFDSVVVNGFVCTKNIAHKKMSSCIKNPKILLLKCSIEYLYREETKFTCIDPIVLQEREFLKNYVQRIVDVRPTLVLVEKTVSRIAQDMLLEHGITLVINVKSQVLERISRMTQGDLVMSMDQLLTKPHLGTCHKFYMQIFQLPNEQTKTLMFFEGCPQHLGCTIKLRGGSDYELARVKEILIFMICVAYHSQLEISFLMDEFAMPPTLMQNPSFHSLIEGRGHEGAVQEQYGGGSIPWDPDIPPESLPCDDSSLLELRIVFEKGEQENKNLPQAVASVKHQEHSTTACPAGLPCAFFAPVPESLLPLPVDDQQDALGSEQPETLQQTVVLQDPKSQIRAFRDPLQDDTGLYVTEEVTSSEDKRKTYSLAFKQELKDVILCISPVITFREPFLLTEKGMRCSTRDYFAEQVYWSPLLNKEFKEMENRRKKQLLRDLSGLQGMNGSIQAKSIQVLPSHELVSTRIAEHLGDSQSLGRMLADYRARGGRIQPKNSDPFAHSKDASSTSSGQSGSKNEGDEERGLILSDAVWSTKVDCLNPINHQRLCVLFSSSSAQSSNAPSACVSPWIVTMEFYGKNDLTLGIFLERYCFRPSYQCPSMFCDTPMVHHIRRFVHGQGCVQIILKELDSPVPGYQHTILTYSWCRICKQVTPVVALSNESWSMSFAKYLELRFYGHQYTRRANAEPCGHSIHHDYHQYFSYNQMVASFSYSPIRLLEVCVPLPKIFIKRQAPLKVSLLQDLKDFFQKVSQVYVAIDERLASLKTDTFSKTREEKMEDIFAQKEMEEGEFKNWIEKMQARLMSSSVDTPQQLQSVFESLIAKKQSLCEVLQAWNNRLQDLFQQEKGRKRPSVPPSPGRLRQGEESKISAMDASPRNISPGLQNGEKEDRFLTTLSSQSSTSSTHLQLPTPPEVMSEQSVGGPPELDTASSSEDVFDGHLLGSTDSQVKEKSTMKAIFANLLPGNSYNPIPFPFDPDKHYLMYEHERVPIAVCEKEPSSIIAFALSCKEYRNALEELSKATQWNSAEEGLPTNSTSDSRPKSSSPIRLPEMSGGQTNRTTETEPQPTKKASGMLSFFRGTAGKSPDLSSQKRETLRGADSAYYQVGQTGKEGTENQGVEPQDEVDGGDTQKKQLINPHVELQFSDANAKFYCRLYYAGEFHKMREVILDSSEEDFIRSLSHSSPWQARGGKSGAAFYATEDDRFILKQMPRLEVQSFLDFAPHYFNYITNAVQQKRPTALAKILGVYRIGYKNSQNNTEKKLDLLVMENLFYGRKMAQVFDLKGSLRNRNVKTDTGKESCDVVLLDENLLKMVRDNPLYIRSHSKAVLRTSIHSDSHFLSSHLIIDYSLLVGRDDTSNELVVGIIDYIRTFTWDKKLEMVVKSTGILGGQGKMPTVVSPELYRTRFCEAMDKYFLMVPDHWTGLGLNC
Serine/threonine-protein kinase PAK 3 (Homo sapiens), sequence (O75914 whole entry, looked up): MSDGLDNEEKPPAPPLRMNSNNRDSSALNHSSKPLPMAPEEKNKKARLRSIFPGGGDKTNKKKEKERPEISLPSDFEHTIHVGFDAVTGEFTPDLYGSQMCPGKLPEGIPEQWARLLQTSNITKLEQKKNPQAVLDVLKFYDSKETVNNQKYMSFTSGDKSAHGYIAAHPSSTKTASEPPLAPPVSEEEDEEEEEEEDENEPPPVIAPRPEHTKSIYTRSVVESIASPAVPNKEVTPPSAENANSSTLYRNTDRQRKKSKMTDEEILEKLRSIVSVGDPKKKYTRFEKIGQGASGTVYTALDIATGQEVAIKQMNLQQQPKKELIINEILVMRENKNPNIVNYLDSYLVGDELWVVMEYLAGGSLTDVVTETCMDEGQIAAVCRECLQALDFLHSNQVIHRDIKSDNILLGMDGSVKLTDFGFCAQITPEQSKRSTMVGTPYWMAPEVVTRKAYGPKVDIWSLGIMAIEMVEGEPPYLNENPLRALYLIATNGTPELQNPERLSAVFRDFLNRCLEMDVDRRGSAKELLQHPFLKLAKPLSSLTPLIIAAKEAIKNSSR

As to `COCC(=O)NC/C=C/c1ccc2ncnc(Nc3ccc(Oc4ccc(C)nc4)c(C)c3)c2c1` [CP-724714], in [1], the % of control was 70%. On to `CCN(CC)CCCCNc1ncc2cc(-c3cc(OC)cc(OC)c3)c(NC(=O)NC(C)(C)C)nc2n1`, for which, in experiment [2], the % of control stood at 100%.

Turning to `Cc1cc(F)c(C(=O)Nc2cccc(-c3nncn3C(C)C)n2)cc1-n1cnc(C2CC2)c1`, the % of control in [3] is 100%. Regarding `Cc1cc([C@@H](C)Nc2ccccc2C(=O)O)c2nc(N3CCOCC3)cc(=O)n2c1` [AZD-6482], the % of control in experiment [4] amounted to 100%. For the compound `CCc1cc(Nc2nccc(-c3c(-c4ccc(OC)c(C(=O)Nc5c(F)cccc5F)c4)nc4ccccn34)n2)c(OC)cc1N1CCC(N2CCN(S(C)(=O)=O)CC2)CC1`, at Insulin receptor, the % of inhibition came to 69%. `CC[C@@H]1[C@H](F)C(=O)N[C@@H]1COc1nccc2cc(C(N)=O)c(OC)cc12` [ZIMLOVISERTIB]: the % of inhibition is 5.4% in experiment [5]; -12.5% in [6]; 11% in [7] (at 0.01 µM); 8.8% in experiment [7] (at 0.04 µM); -0.1% in [7] (at 0.2 µM); 21.3% in experiment [7] (at 1 µM). Besides, the % of inhibition in [7] (at 5 µM) stood at 29.2%. Take `CN(C)CCOc1ccc(-c2nc(-c3ccncc3)c(-c3ccc4c(c3)CC/C4=N\O)[nH]2)cc1`: the results for the % of control in experiment [8] and in experiment [9] were 86% and 99%, respectively. The compound `CCC(=O)N1CCN(c2ccc(-n3c(=O)ccc4cnc5ccc(-c6cnc7ccccc7c6)cc5c43)cc2C(F)(F)F)CC1` showed a % of control in experiment [10] of 86%. Consider `Nc1cnc(N2CCc3cc(S(=O)(=O)Nc4c(F)cc(Cl)cc4F)cc(N4CCCC4=O)c32)nc1` [TP-020n], for which the % of control was 97% in experiment [11] and 85% in experiment [12].

On to `CC(=O)Nc1cccc(-n2c(=O)n(C3CC3)c(=O)c3c(Nc4ccc(I)cc4F)n(C)c(=O)c(C)c32)c1`, for which the % of control in experiment [13] turned out to be 107%. Regarding `COc1cc(N(C)c2ccnc3ccc(C(F)(F)F)cc23)cc(OC)c1OC`, the % binding in experiment [14] was 85%.

The values above are taken from ChEMBL document CHEMBL5465560, “Selectivity Literature for EUbOPEN Chemogenomic Library” (2024).
